Legend:
[1] = tested on: T. cruzi Tulahuen CL2 β-galactosidase strain; test: Antitrypanosomal screening, anti-T. cruzi (trypomastigote) activity, CPRG photometric method; assay type: cell-based; details: Trypanosoma cruzi; Tulahuen CL2 β-galactosidase strain on MRC-5SV2; values in parentheses mean ± SEM of two experiments
Procedure: A preliminary assay was conducted to evaluate the analogs’ in vitro cytotoxicity and antitrypanosomatid activity against T. cruzi Tulahuen strain (Table ). […] However, the promising results of analog 16 encouraged us to conduct more in-depth studies on this compound.
Anti-parasitic assays were conducted following established protocols outlined in earlier literature. In brief, for assessing anti-T. cruzi activity, the Tulahuen CL2 β-galactosidase strain (nifurtimox-sensitive) was employed and maintained on MRC-5SV2 (human lung fibroblast). A total of 4 × 10^3 cells were infected with 4 × 10^4 parasites per well. The synthesized analogs were tested at concentrations ranging from 1.56 to 50.00 μM. Parasite burdens were evaluated after the addition of the substrate CPRG (chlorophenol red ß-D-galactopyranoside). The change in color was measured spectrophotometrically at 540 nm after 4 h of incubation at 37°C. In all assays, parasite growth was compared to untreated-infected controls (100% growth) and noninfected controls (0% growth). Results were expressed as the percentage of parasite reduction at different drug concentrations and used to calculate IC50 values from the dose–response curves.

[2] = Preliminary cytotoxicity assay, resazurin; assay type: cell-based; details: MRC-5SV2 lung fibroblast cells; human MRC-5 cell line, 3 days incubation
Procedure: MRC-5SV2 cell cytotoxicity was assessed following the methodology outlined in earlier literature. Briefly, cells at a concentration of 1.5 × 10^5 cells/mL were cultured with compound dilutions at 37 °C and 5% CO2. Cell growth was compared to untreated-control wells (100% cell growth) and medium-control wells (0% cell growth). After 3 days of incubation, cell viability was fluorometrically assessed following the addition of 50-μL resazurin per well. Fluorescence was measured after 4 h at 37 °C (λex 550 nm, λem 590 nm). The results were expressed as the percentage reduction in cell growth/viability compared to control wells, and an IC50 value was determined.

[3] = Cytotoxicity against primary mouse macrophages; assay type: cell-based; details: mouse, primary mouse macrophages (PMM)
From the text: 1 In Vitro Anti- T. cruzi (Trypomastigote) Activity and Cytotoxicity Assessment of Hit 1 Analogs ^a | column: PMM CC50 (μM)

[4] = tested on: T. cruzi intracellular amastigotes (Colombian strain) in LLC-MK2 cells; test: Antiamastigote activity, infection index, treatment after infection, LLC-MK2; assay type: cell-based, Trypanosoma cruzi; details: for selective index MK2: CC50/IC50, LLC-MK2, treatment after infection; for IC50: infected LLC-MK2, 48 h treatment after infection; for selectivity indices: stated in text across LLC-MK2 and C2C12, treatment after infection
Procedure: (§1) Considering the dynamics of T. cruzi infection in humans, characterized by an increase in parasitic load through intracellular replication of amastigote forms in various cell types, we evaluated the action of the compounds in LLC-MK2 (epithelial cells) and C2C12 (myoblasts) using an in vitro infection model.
(§2) The antiamastigote activity was assessed by calculating the infection index, defined as the percentage of infected cells multiplied by the mean number of amastigotes per cell. Noninfected control cells were subjected to identical treatment conditions to evaluate the cytotoxicity of the compounds (CC50). This comprehensive approach allowed for the simultaneous assessment of antiparasitic efficacy and compound-induced cytotoxicity, offering valuable insights into their therapeutic potential.
(§3) In the infection plate each well was added 50 μL of cold methanol for cell fixation. The plate was kept at −20 °C for 1 h. After this period, the wells were blocked with 50 μL of PBS 1X-Saponin 0.1 + 10% rabbit serum for 10 min at room temperature. Following, the wells were washed four times with PBS 1X-Saponin 0.1% and 50 μL of the same solution was added to each well, incubating for 20 min at room temperature. Subsequently, 50 μL of PBS 1X-Saponin 0.1% + anti-T. cruzi antibody (from serum of infected patients) at a 1:10 dilution was added, and the plate was incubated for 1 h at room temperature. The wells were then washed four times with PBS 1X-Saponin 0.1%, and 50 μL of PBS 1X-Saponin 0.1% + antihuman IgG-FITC at a 1:200 dilution was added. The plate was incubated wrapped in aluminum foil for 30 min. After incubation, the plate was washed four times with PBS 1X-Saponin 0.1%, and 50 μL of PBS 1X was added to all wells after the final wash. For nuclear staining, the plate, already stained with FITC, was washed three times with PBS 1X, and 200 μL of PBS 1X + 1 μL of iodide per well was added. After staining, the wells were washed again, and 100 μL of PBS 1X was added before imaging.
(§4) The plate was analyzed in the EVOS fluorescence microscope for image acquisition and fluorescence identification, in which the anti-IgG-FITC stains parasite′s membrane in green and iodide stains nuclei in red. On each condition of treatment, 200 cells of 3 wells were evaluated as to the number of infected cells and the number of parasites per cell for calculating the index of infection the IC50 were calculated by Nonlinear regression curves (log[inhibitor] vs normalized response). Selective index was calculated by dividing CC50 per IC50.

[5] = tested on: T. cruzi intracellular amastigotes (Colombian strain) in C2C12 cells; test: Antiamastigote activity, infection index, treatment after infection, C2C12; assay type: cell-based, Trypanosoma cruzi; details: for selective index C2C12: CC50/IC50, C2C12, treatment after infection; for IC50: Trypanosoma cruzi, infected C2C12, 48 h treatment after infection
Procedure: as §1, §2, §3, §4

[6] = Cellular viability (MTT), noninfected LLC-MK2; assay type: cell-based; details: rhesus monkey, noninfected LLC-MK2 epithelial cells; noninfected LLC-MK2, Table 2 (treatment after infection); read-out: CC50 non infected MK2
Procedure: as §2
(§5) Following 24 h of treatment, 10 μL of 5 mg/mL of MTT (3-(4,5-dimethylthiazol-2-yl)-2,5-diphenyltetrazolium bromide) was added per well, and absorbance was evaluated in the Eon Microplate Spectrophotometer Reader (BioTek) at 570–690 nm. CC50 were calculated by Nonlinear regression curves (log[inhibitor] vs normalized response).

LLC-MK2 cells = test: Cellular viability (MTT), noninfected LLC-MK2; assay type: cell-based; details: noninfected LLC-MK2, Table 3 (treatment previously to infection); read-out: CC50 non infected MK2
Procedure: as §2, §5

[7] = Cellular viability (MTT), noninfected C2C12; assay type: cell-based, murine; details: mouse, noninfected C2C12 myoblast cells; noninfected C2C12, Table 2 (treatment after infection); read-out: CC50 non infected C2C12
Procedure: as §2
(§6) The LLC-MK2 (ATCC CCL-7) cell line of epithelial origin, and C2C12 (ATCC CRL-1772) myoblast cells, derived from murine myoblasts, were maintained in Roswell Park Memorial Institute-RPMI 1640 medium supplemented with L-glutamine, 25 mM HEPES (Corning), 10% (v/v) fetal bovine serum (FBS), and gentamicin (1 μL/mL). […] Once the cells reached 80% confluence, were detached using Trypsin-EDTA and prepared in the subsequent experiments.
as §5

C2C12 cells = test: Cellular viability (MTT), noninfected C2C12; assay type: cell-based, murine; details: noninfected C2C12, Table 3 (treatment previously to infection); read-out: CC50 non infected C2C12
Procedure: as §2, §6, §5

[8] = tested on: T. cruzi amastigotes (Colombian strain) in pre-exposed LLC-MK2 cells; test: Antiamastigote activity in pretreated (pre-exposed) LLC-MK2 cells; assay type: cell-based, Trypanosoma cruzi; details: for selective index MK2: CC50/IC50, LLC-MK2 treated previously to infection; for IC50: Trypanosoma cruzi, LLC-MK2 treated previously to infection
Procedure: (§7) After 24 h, the culture medium was removed and replaced with fresh medium containing cell-derived trypomastigotes (MOI 20:1, Colombian strain) overnight.
as §3, §4

[9] = tested on: T. cruzi amastigotes (Colombian strain) in pre-exposed C2C12 cells; test: Antiamastigote activity in pretreated (pre-exposed) C2C12 cells; assay type: cell-based, Trypanosoma cruzi; details: for selective index C2C12: CC50/IC50, C2C12 treated previously to infection; for IC50: Trypanosoma cruzi, C2C12 treated previously to infection
Procedure: as §7, §3, §4

Solubility observations = details: 2.000 to 0.062 mM, 0.5% DMSO
[10] = tested on: T. cruzi nitroreductase (TcNTR72); test: T. cruzi nitroreductase activity assay (NADH oxidation); details: 50 μM NADH, 25 °C; for Kobs (12.5 μM): compound 12.5 μM; for Kobs (25 μM): compound 25 μM; for Kobs (50 μM): compound 50 μM; for Kobs (100 μM): compound 100 μM
Procedure: TcNTR72 was expressed, purified, and its activity was tested following previously described protocol. […] This mixture was incubated at room temperature for 5 min. […] All assays were performed in triplicate for each measurement and for each concentration. Benznidazole was used as a control.

[11] = tested on: trypomastigotes forms of T. cruzi Tulahuen strain (LacZ); parameters: method as in de Andrade et al., 2015; details: previous work of the group; ref de Andrade et al., 2015; read-out: IC50 against trypomastigotes forms of T. cruzi Tulahuen strain (LacZ); cited from earlier work
[12] = previous work of the group; cited from earlier work
[13] = target: T1, Recombinant trans-sialidase from T. cruzi (TcTS) (Trypanosoma cruzi, UniProt Q26966); test: Continuous fluorimetric TcTS inhibition (MuNANA hydrolysis); assay type: biochemical
T1 construct: A truncated recombinant TcTs, containing the enzyme’s catalytic N-terminal domain, was used; made in house
Procedure: Although the main reaction catalyzed by TcTS involves the transfer of host sialic acids to β-galactose acceptors found in parasite surface mucins, a residual hydrolase activity is also present and was utilized to screen a small library of TcTS inhibitors.
A truncated recombinant TcTs, containing the enzyme’s catalytic N-terminal domain, was used. The production and purification of TcTs were performed following previously described protocols. The continuous fluorimetric TcTS assay was conducted in 96-well plates containing phosphate buffer solution at pH 7.4 (25 μL), recombinant enzyme solution (25 μL) and inhibitor solution (25 μL). […] The enzyme activity was measured by calculating the slope of the curve for each concentration of the test compound. Pyridoxal phosphate was used as the inhibition control at a concentration of 1 mM. The IC50 value was determined using the log(inhibitor) vs normalized response–variable slope model in GraphPad Prism version 10.0.0 for Windows, GraphPad Software, Boston, Massachusetts (www.graphpad.com).

[14] = Trypanosoma cruzi, LLC-MK2, 48 h

T1 sequence (Q26966 entry or part of it): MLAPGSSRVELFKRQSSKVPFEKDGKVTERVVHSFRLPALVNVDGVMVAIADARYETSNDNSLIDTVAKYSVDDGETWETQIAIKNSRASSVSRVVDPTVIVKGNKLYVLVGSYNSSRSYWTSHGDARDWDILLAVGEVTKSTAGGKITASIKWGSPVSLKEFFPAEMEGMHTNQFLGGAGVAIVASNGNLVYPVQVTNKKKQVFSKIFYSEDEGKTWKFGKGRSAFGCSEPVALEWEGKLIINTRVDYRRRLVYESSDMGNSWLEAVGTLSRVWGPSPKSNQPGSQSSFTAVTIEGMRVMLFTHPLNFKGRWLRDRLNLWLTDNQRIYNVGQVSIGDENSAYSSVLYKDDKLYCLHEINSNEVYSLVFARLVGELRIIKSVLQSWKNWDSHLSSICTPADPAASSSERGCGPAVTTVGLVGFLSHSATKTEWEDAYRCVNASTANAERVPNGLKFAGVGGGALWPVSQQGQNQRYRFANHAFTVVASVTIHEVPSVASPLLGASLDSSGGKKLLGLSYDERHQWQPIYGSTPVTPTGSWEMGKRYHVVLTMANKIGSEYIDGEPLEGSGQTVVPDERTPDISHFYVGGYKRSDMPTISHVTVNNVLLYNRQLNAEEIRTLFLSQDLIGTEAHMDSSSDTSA

SMILES	IC50 [1] [µM]	selective index MK2 [4]	IC50 [4, 14] [µM]	selectivity indices [4]	selective index C2C12 [5]	IC50 [5] [µM]	CC50 at 24 h [6] [µM]	CC50 (LLC-MK2 cells) [µM]	CC50 at 24 h [7] [µM]	CC50 (C2C12 cells) [µM]	selective index MK2 [8]	IC50 [8] [µM]	selective index C2C12 [9]	IC50 [9] [µM]	Kobs (12.5 μM) [10] [s^–1]	Kobs (25 μM) [10] [s^–1]	Kobs (50 μM) [10] [s^–1]	Kobs (100 μM) [10] [s^–1]	IC50 [11] [µM]	also measured
CC(=O)OC[C@H]1O[C@@H](n2cc(-c3ccc([N+](=O)[O-])cc3)nn2)[C@H](OC(C)=O)[C@@H](OC(C)=O)[C@H]1OC(C)=O [Compound 16, (2R,3S,4S,5R,6R)-2-(Acetoxymethyl)-6-(4-(4-nitrophenyl)-1H-1,2,3-triazol-1-yl)tetrahydro-2H-pyran-3,4,5-triyl Triacetate]	6	484.3	0.16 ± 0.02	exceeding 400	621.1	0.13 ± 0.01	> 80	> 80	> 80	> 80	124.9	0.6 ± 0.2	141.5	0.56 ± 0.09	0.02 ± 0.02	0.06 ± 0.01	0.07 ± 0.01	0.07 ± 0.01	–	CC50 at 3 days [2]: > 50 µM; CC50 [3]: > 50 µM; solubility in the TcTS assay medium (Solubility observations): low solubility in the medium
O=C(Cn1cc(-c2ccc([N+](=O)[O-])cc2)nn1)NCc1ccccc1 [hit 1]	–	–	–	–	–	–	–	–	–	–	–	–	–	–	–	–	–	–	7	solubility in water [12]: low solubility in water
O=[N+]([O-])c1ccc(-c2cn([C@@H]3O[C@H](CO)[C@H](O)[C@H](O)[C@H]3O)nn2)cc1 [Compound 19, (2R,3R,4S,5R,6R)-2-(Hydroxymethyl)-6-(4-(4-nitrophenyl)-1H-1,2,3-triazol-1-yl)tetrahydro-2H-pyran-3,4,5-triol]	–	782.8	0.1 ± 0.04	exceeding 400	677.4	0.11 ± 0.02	> 80	> 80	> 80	> 80	39.4	2 ± 0.2	115.6	0.7 ± 0.3	0.03 ± 0.01	0.03 ± 0.01	0.04 ± 0.02	0.04 ± 0.01	–	IC50 [13]: 1100 ± 100 µM
O=C(Cn1ccnc1[N+](=O)[O-])NCc1ccccc1 [BZN, reference compound]	1.64	–	1.43 ± 0.1	–	–	6 ± 1	46.9	–	74.4	–	–	–	–	–	0.13 ± 0.01	0.17 ± 0.05	0.32 ± 0.04	0.23 ± 0.07	34	IC50 [4]: 1.4 ± 0.1 µM

— publication PMC12120661, “Synthesis and Biological Evaluation of 4‑(4-Nitrophenyl)‑1H‑1,2,3-triazole Derivatives as Antitrypanosomal Agents” (ACS Omega, 2025)
